The subject of series [1] is K. pneumoniae. The experiment in a line: Minimal inhibitory concentration (MIC), Example V. Format: cell-based. Conditions: Klebsiella pneumoniae. As to the method: (§1) MINIMAL INHIBITORY CONCENTRATION OF 2-AMINO-2-METHYL-1-PROPYL
(§2) ^a Minimal inhibitory concentration expressed in parts per million
(§3) sequence inhibited the test organism at the higher concentrations.
(§4) THE ANTIBACTERIAL SCREEN - EXAMPLE V
Klebsiella pneumoniae ATCC# 10031
(§5) THE ANTIBACTERIAL SCREEN - EXAMPLES W - Z (Autotiter IV)
(§6) (a) Compounds. All compounds to be screened are weighed (approx. 10 mg) on the day preceding the test date. Each compound is solubilized on the day of assay in appropriate solvent and diluted automatically in the Autotiter IV with distilled water (buffer can be employed here also).
(§7) Bacteria: Staphylococcus aureas Smith (or 209), Escherichia coli AB 1932-1, 1100/B22 and Vogel, Streptococcus pyogenes C203 Salmonella typhimurium 14028, Bacillus subtilis 6051-1, Klebsiella pneumoniae 10031, Pseudomonas aeruginosa 9027, Bordetella bronchiseptica 4617 and Staphylococcus epidermidis 12228.
(§8) (c) Inocula. Prior to utilization in the Autotiter IV, all bacteria are cultured for 18-20 hr. (37° C) in tryptose phosphate broth (TP), except, S. pyogenes C203, which is cultured in Brain Heart Infusion broth plus 10% normal horse serum. Immediately prior to testing, each culture is adjusted to an optical density of 0.10 (650 nm), employing a Bausch & Lomb Spectronic 20, and diluted subsequently into double strength medium to approximately 2 × 10^5 viable organisms per ml.
(§9) 1. An automated injector system dispenses 0.05 ml of diluent (sterile H2 O or buffer) to all cups of the autotiter trays from rows 2 through 7.
(§10) 2. The loops (for sequential dilutions of the compounds are moistened by immersion into 70% ethyl alcohol. After removal of excess alcohol by blotting, the loops are moved to the first row of cups in the autotray containing 0.10 ml of the compound to be diluted and tested (usually, this initial concentration is 500 to 1000 mcg/ml, but can be varied upward or downward). The loops are lowered and sequentially transfer the diluted solutions of the compound through row 7.
(§11) Immediately after each dilution is made, each cup is automatically inoculated with 0.05 ml of the appropriate test organism. This inoculation derives from a second injector system containing the organism in double-strength medium. The total operation consists of the automatic dilution of a single compound in each of 8 rows of the Autotiter try.
(§12) After these operations, we reverse the tray and a second compound is diluted over the other one-half of the tray and inoculated, subsequently, with 8 organisms. Thus, for each Autotiter Tray, two compounds are screened against 8 different organisms at dilutions ranging from 1:2 to 1:128.
(§13) (e) Incubation. The inoculated Autotiter trays are incubated at 37° C for 18 - 20 hr. At the end of this period, each tray is examined for the presence or absence of growth (turbidity). The lowest concentration of the compound inhibiting growth is recorded as the minimal inhibitory concentration (MIC).

For the next series, the system named is C. albicans. The experiment in a line: Minimal inhibitory concentration (MIC), Example V. The class given is cell-based. To be noted: Candida albicans.
Description: MINIMAL INHIBITORY CONCENTRATION OF 2-AMINO-2-METHYL-1-PROPYL […]
as §4

The test system of a further series is S. pyogenes. In words: Minimal inhibitory concentration (MIC), Example V. The class given is cell-based. To be noted: Streptococcus pyogenes.
The test system of series [2] is P. aeruginosa. In words: Minimal inhibitory concentration (MIC), Example V. Format: cell-based. To be noted: Pseudomonas aeruginosa. As to the method: as §4, §5, §6, §7, §8, §9, §10, §11, §12, §13
The test system of series [3] is S. aureus. In words: Minimal inhibitory concentration (MIC), Example V. Format: cell-based. To be noted: Staphylococcus aureus. As to the method:
as §4, §5, §6, §7, §8, §9, §10, §11, §12, §13

Series [4] deals with E. coli. The experiment in a line: Minimal inhibitory concentration (MIC), Example V. The class given is cell-based. Conditions: Escherichia coli.
Description: as §1, §2, §3, §4

In the next series the test system is T. mentagrophytes. The experiment in a line: Minimal inhibitory concentration (MIC), Example V. The class given is cell-based. Conditions: Trichophyton mentagrophytes.
Description: as §1, §2, §3, §4

A further series deals with A. niger. The experiment in a line: Minimal inhibitory concentration (MIC), Example V. Format: cell-based. Conditions: Aspergillus niger.
Description: as §1, §2, §3, §4

The nature of series [5]: Solubility in 30% methanol: 0.1 M sodium dihydrogen phosphate, pH 7.0. Format: physicochemical. Conditions: 0.1 m nah2po4, pH 7, organic solvent or mixture, Concentration (footnote: Solubility in 30% methanol: 0.1 M sodium dihydrogen phosphate, pH 7.0).
The test system of a further series is S. epidermidis. The experiment in a line: Contact germicidal efficiency (sterilization time). Format: cell-based, Staphylococcus epidermidis. To be noted: Example Z, S. pidermidis, pH 4.6. As to the method: (§14) CONTACT GERMICIDAL EFFICIENCY OF N-CHLORAMINES AS A FUNCTION
(§15) ^a Time intervals screened 0.5, 1, 2, 3, 4 and 5 minutes.
(§16) ^a Time intervals screened 0.5, 1, 2, 3, 4, 5, 6, 7, 8, 9 and 10
(§17) ^a Time intervals screened 0.5, 1, 2, 3, 4, and 5 minutes.
(§18) ^b Time intervals screened 0.5, 1, 2, 3, 4, 5, 6, 7, 8, 9 and 10
(§19) Immediately preceding the screen, the compound is weighed and diluted with a buffer or other solvent to give the final concentration desired. The buffer or solvent chosen depends on the conditions of the screen and could be one of the following: 0.1 M NaOAc, pH 4.6; 0.1 M NaH2 PO4, pH 7.0; 0.1 M Na2 B4 O7, pH 8.8; 35% methanol in one of the aforementioned buffers; 10% Triton × 100 in buffer, etc.
(§20) The positive chlorine concentration of the test solution is then determined iodometrically.
(§21) Media used for the Screen are Nutrient Broth, BBL# 11479 and Nutrient Agar, BBL# 11472 prepared according to label directions. The broth is dispensed in 75 ml amounts of flasks for overnight cultures and in 5 ml amounts to culture tubes for subculturing during the Screen. Agar plates are prepared as usual.
(§22) Overnight cultures are prepared by inoculating from stock cultures into the 75 ml flasks of nutrient broth and incubating for 15 hours at 37° C.
(§23) The iodometrically characterized test solution is dispensed in 5 ml amounts to seven small stoppered flasks. The organisms are screened one at a time as follows:
(§24) A 0.2 ml portion of the overnight culture is inoculated into 5 ml of 0.9% NaCl for use in controls. A 0.2 ml portion of the overnight culture is inoculated into a flask containing 5 ml of the test solution, an automatic timer is simultaneously triggered and the solution mixed. At time intervals of 30 seconds, 1, 2, 3, 4, 5, 6, 7, 8, 9, and 10 minutes a loopful of the inoculated solution is subcultured into 5 ml of sterile nutrient broth and mixed by a Vortex Genie Mixer, the high dilution serving to stop the action of the compound. At the end of the ten minute screen, the entire procedure is repeated for each of the remaining six organisms. All of the subculture tubes are incubated at 37° C and checked for signs of growth by turbidity at 24 hr., 48 hr., 3, 5, and 7 days. The earliest subculture time at which no growth is present in the subculture tube is considered the endpoint and is recorded as that time, e.g., 7 minutes.
(§25) The test solution is prepared and characterized as above but is made up at twice the concentration desired. The solution is diluted 1:1 with Rehydrated Tissue Culture Dessicated Horse Serum, Difco #5357-72 and dispensed in a 5 ml amount to a small flask. The mixture is incubated at Room Temperature for 30 minutes to allow denaturation of the compound by the serum and then screened as above.
(§26) The 5 ml mixture of serum and test solution are prepared in sequence to allow as close to 30 minutes as possible before the beginning of the screen of each organism.
as §7

Series [6] concerns K. pneumoniae. The experiment in a line: Contact germicidal efficiency (sterilization time). To be noted: Example Z. The class given is cell-based, Klebsiella pneumoniae. As to the method:
as §14, §15, §16, §17, §18, §19, §20, §21, §22, §23, §24, §25, §26, §7

Series [7] deals with E. coli. In words: Contact germicidal efficiency (sterilization time). Format: cell-based, Escherichia coli. Conditions: Example Z, pH 4.6, in presence of horse serum, 5800 ppm (1057 PPMCl+). As to the method: (§27) CONTACT GERMICIDAL EFFICIENCY OF
as §15, §16, §17, §18, §19, §20
(§28) Media used for the Screen are Nutrient Broth, BBL# 11479 and Nutrient Agar, BBL# 11472 prepared according to label directions. The broth is dispensed in 75 ml amounts of flasks for overnight cultures and in 5 ml amounts to culture tubes for subculturing during the Screen. Agar plates are prepared as usual. […]
(§29) A 0.2 ml portion of the overnight culture is inoculated into 5 ml of 0.9% NaCl for use in controls. […] The earliest subculture time at which no growth is present in the subculture tube is considered the endpoint and is recorded as that time, e.g., 7 minutes. […]

For series [8], the system named is P. aeruginosa. In words: Contact germicidal efficiency (sterilization time). Format: cell-based, Pseudomonas aeruginosa. To be noted: Example Z. As to the method:
as §14, §15, §16, §17, §18, §19, §20, §21, §22, §23, §24, §25, §26, §7

Series [9] relates to S. aureus. The experiment in a line: Contact germicidal efficiency (sterilization time). The class given is cell-based, Staphylococcus aureus. Conditions: Example Z, pH 4.6, in presence of horse serum, 5800 ppm (1057 PPMCl+). On the procedure:
as §27, §15, §16, §17, §18, §19, §20, §28, §29

In the next series the test system is B. bronchiseptica. The experiment in a line: Contact germicidal efficiency (sterilization time). The class given is cell-based, Bordetella bronchiseptica. To be noted: Example Z. On the procedure: as §14, §15, §16, §17, §18, §19, §20, §21, §22, §23, §24, §25, §26, §7
The conditions of series [10]: prior art; cited from earlier work.
Where [11] appears, read: pH 4.6, absence of horse serum, IV j 79 ppm (21 PPMCl+), IV k 5800 (1057), IV l 1112 (209).
Where [12] appears, read: pH 4.6, in presence of horse serum, 5800 ppm (1057 PPMCl+).

As for `CCCC(=O)OCC(C)(C)N.Cl` [III b, 2-Amino-2-methyl-1-propyl butyrate hydrochloride], the MIC against K. pneumoniae [1], with C. albicans, in the series on S. pyogenes, in the series with P. aeruginosa [2], against S. aureus [3] and with E. coli [4] was greater than 62.5 µg/mL throughout. Besides, the MIC against T. mentagrophytes and against A. niger was greater than 62.5 µg/mL in each case. The solubility in series [5] amounted to 1070 µg/mL.
On to `CCCCCC(=O)OCC(C)(C)N.Cl` [III d, 2-Amino-2-methyl-1-propyl hexanoate hydrochloride], for which the MIC in the series with K. pneumoniae [1] was greater than 62.5 µg/mL; against C. albicans, greater than 62.5 µg/mL; in the series on S. pyogenes, 62.5 µg/mL; against P. aeruginosa [2] it was 62.5 µg/mL; with S. aureus [3], greater than 62.5 µg/mL; with E. coli [4], greater than 62.5 µg/mL. Moreover, the minimal inhibitory concentration (MIC) against T. mentagrophytes and against A. niger was greater than 62.5 µg/mL each time. Also, the solubility in series [5] was 1040 µg/mL.
Turning to `CCCCCCCC(=O)OCC(C)(C)N.Cl` [III e, 2-Amino-2-methyl-1-propyl octanoate hydrochloride], the minimum inhibitory concentration (MIC) in the series on K. pneumoniae [1], in the series on C. albicans, with S. pyogenes, in the series on P. aeruginosa [2], against S. aureus [3] and against E. coli [4] was greater than 62.5 µg/mL throughout. Further, the MIC against T. mentagrophytes and with A. niger was greater than 62.5 µg/mL in each case. The solubility in series [5] came to 1040 µg/mL.
Turning to `C[n+]1cccc(C(=O)OCC(C)(C)N(Cl)Cl)c1` [IV k, 2-N,N-Dichloroamino-2-methyl-1-propyl nicotinate methylsulfate], the minimal inhibitory concentration (MIC) against K. pneumoniae [1], in the series with C. albicans, in the series on S. pyogenes, against P. aeruginosa [2], against S. aureus [3] and in the series with E. coli [4] was greater than 250 µg/mL in each case. In addition, the minimum inhibitory concentration (MIC) against T. mentagrophytes and in the series with A. niger was 125 µg/mL in each case. In addition, the “Sterilization Time” value stood at 4 min with S. epidermidis (absence of horse serum, IV j 79 ppm (21 PPMCl+), IV k 5800 (1057), IV l 1112 (209)); 4 min in the series with S. epidermidis (in presence of horse serum, 5800 ppm (1057 PPMCl+)); 2 min in the series with K. pneumoniae [6] (setting [11]); 2 min in the series on K. pneumoniae [6] (setting [12]); 0.5 min in the series with E. coli [7]; 2 min with P. aeruginosa [8] (setting [11]). The “Sterilization Time” value was determined as 2 min in the series with P. aeruginosa [8] (setting [12]), 6 min in the series with S. aureus [9], 1 min in the series on B. bronchiseptica (setting [11]) and 2 min in the series with B. bronchiseptica (setting [12]).
For the molecule `NCl` [NH2 Cl, chloramine], the “Deactivation by denaturing agents (e.g., horse serum)” value in series [10] was “readily deactivated”.
As to `ClNCl` [NHCl2], the “Deactivation by denaturing agents (e.g., horse serum)” value in [10] was “readily deactivated”.
